In patent US7307063B2, “Melanocortin metallopeptides for treatment of sexual dysfunction” (Palatin Technologies, Inc., priority 2001, dated 2007):
Where “and” joins values, the source holds several entries; their conditions need not be identical. Identical values can stand only once. Non-standard residues stand in square brackets, D forms with d. No end group written: not given here. *: point of attachment. Tiq = 1,2,3,4-tetrahydroisoquinoline-1-carboxylic acid; Phenylacetyl(4-Ph) = O=C(Cc1ccc(-c2ccccc2)cc1)*; 2Nal = N[C@@H](Cc1ccc2ccccc2c1)C(=O)O; Desaminotyrosyl = O=C(CCc1ccc(O)cc1)*; Hydrocinnamoyl = O=C(CCc1ccccc1)*; Igl = N[C@H](C(=O)O)C1Cc2ccccc2C1; Ac6c = NC1(C(=O)O)CCCCC1; Nle = CCCC[C@H](N)C(=O)O

Columns and labels:
MC1-R = biological target: T1, MC1-R (Mus musculus, UniProt Q01727); assay: Competitive binding assay: inhibition of 125I-NDP-α-MSH binding to membranes from B16-F10 mouse melanoma cells; details: Table 6, mean of triplicate
T1 construct: MC1-R membranes were isolated from B16—F10 mouse melanoma cells; endogenous in cells; host or cells: B16-F10 mouse melanoma cells
Protocol: (§1) Rhenium-complexed metallopeptides of the formulas given in Table 1 were prepared, with the metallopeptides complexed with rhenium using the rhenium transfer agent ReOCl3(PPh3)2 in the presence of 1,8-Diazabicyclo[5,4,0] undec-7-ene as a base, as disclosed in International Application PCT/US00/16396, filed Jun. 14, 2000, Melanocortin Metallopeptide Constructs, Combinatorial Libraries and Applications, incorporated by reference herein. Affinities of compounds were measured using membranes from HEK-293 cells containing cloned human melanocortin receptor subtypes 3, 4 and 5. MC1-R membranes were isolated from B16—F10 mouse melanoma cells. The assay tube also contained a chosen concentration of the test peptide of this invention, complexed to a rhenium metal ion as indicated, for determining its efficacy in inhibiting the binding of ^125I-NDP-α-MSH to its receptor. Non-specific binding was measured by complete inhibition of binding of ^125I-NDP-α-MSH in the assay with the presence of 1 μM α-MSH. 100% specific binding was defined as the difference in radioactivity (cpm) bound to cell membranes in the absence and presence of 1 μM α-MSH. The cpm obtained in presence of test compounds were normalized with respect to 100% specific binding to determine the percent inhibition of ^125I-NDP-α-MSH binding.
(§2) Peptide sequences set forth in Table 6 were prepared using conventional synthetic means. The resulting sequences were rhenium-complexed to form metallopeptides, with the metallopeptides complexed with rhenium using the rhenium transfer agent ReOCl3(PPh3)2 in the presence of 1,8-Diazabicyclo[5,4,0] undec-7-ene as a base. Percent inhibition was determined as in Example 1 using the Re-complexed metallopeptides, using the same methods as described therein. All measures are means of triplicate determinations.

MC4-R = biological target: T2, MC4-R (Homo sapiens, UniProt P32245); assay: Competitive binding assay: inhibition of 125I-NDP-α-MSH binding to HEK-293 membranes with cloned human receptor subtype 4; details: Table 6, mean of triplicate
T2 construct: expressed in transfected cells; host or cells: HEK-293
Protocol: as §1, §2

hMC5-R = biological target: T3, hMC5-R (Homo sapiens, UniProt P33032); assay: Competitive binding assay: inhibition of 125I-NDP-α-MSH binding to HEK-293 membranes with cloned human receptor subtype 5; details: Table 6; 1 μM; mean of triplicate
T3 construct: expressed in transfected cells; host or cells: HEK-293
Protocol: as §1, §2

hMC2-R = biological target: T4, hMC2-R (Homo sapiens, UniProt P41968); assay: Competitive binding assay of additional compounds, Table 6 hMC2-R; details: 1 μM, mean of triplicate
T4 construct: expressed in transfected cells; host or cells: HEK-293
Protocol: [The source words this procedure for another target and reports this target under the same test.] as §1, §2

T4 sequence (P41968 whole entry): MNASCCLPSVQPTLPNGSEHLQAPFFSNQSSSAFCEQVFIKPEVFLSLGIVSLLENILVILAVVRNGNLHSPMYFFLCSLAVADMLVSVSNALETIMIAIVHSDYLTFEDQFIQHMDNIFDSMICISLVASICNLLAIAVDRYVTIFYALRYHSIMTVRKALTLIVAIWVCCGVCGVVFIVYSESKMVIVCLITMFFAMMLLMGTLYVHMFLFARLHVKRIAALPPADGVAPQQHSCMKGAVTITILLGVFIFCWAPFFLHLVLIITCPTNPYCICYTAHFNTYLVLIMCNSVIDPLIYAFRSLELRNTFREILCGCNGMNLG
T2 sequence (P32245 whole entry): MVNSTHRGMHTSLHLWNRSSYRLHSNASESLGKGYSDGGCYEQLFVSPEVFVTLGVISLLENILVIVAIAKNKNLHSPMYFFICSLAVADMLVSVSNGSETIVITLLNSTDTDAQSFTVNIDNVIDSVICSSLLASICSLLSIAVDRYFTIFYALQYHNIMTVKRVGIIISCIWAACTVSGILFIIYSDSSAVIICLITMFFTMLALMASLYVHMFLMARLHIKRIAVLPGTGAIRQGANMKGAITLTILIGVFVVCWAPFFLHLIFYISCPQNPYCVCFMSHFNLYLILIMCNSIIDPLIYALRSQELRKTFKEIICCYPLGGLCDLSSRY
T1 sequence (Q01727 whole entry): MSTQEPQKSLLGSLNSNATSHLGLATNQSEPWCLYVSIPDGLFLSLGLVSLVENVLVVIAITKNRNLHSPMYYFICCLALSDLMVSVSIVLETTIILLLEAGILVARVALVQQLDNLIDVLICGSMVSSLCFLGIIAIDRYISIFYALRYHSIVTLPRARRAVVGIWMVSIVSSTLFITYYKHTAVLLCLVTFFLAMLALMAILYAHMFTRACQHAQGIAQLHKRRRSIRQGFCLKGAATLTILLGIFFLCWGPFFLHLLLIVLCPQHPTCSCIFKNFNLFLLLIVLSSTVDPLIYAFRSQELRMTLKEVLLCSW
T3 sequence (P33032 whole entry): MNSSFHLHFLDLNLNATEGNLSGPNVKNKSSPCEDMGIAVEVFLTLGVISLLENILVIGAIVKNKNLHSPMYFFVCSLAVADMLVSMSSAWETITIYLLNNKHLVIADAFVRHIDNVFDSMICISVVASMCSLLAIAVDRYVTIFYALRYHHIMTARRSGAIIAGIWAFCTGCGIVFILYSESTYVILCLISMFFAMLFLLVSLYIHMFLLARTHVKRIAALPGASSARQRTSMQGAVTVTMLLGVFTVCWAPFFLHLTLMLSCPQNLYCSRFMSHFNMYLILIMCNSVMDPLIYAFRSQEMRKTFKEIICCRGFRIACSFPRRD

Row | Substance | % Inhibition of Binding MC1-R (MC1-R; 1 μM) | % Inhibition of Binding hMC4-R (MC4-R; 1 μM) | % Inhibition of Binding hMC5-R (hMC5-R) | % Inhibition of Binding hMC2-R (hMC2-R) | % Inhibition of Binding MC1-R (MC1-R; 0.1 μM) | % Inhibition of Binding hMC4-R (MC4-R; 0.1 μM) | % Inhibition of Binding hMC2-R (hMC2-R; listed as NH2(CH2)6CO-Ser(Bzl)-D-Phe(4′-Cl)-Arg-Trp-Cys-NH2, 1 µM)
1 | Idc-D-Phe-Arg-Cys-Trp-NH2 | 0% | 4% | 19% | 0% |  |  | 
2 | 3′-Phenylpropionyl-D-Phe-Arg-Cys-Trp-NH2 (Hydrocinnamoyl-[dF]RCW-NH2; not fully specified; printed as 3′-Phenylpropionyl-D-Phe-Arg-Cys-Trp-NH2) | 3% | 0% | 44% | 0% |  |  | 
3 | [dP][dF]RCW-NH2 | 53% | 13% | 67% | 0% |  |  | 
4 | Tiq-D-Phe-Arg-Cys-Trp-NH2 (Tiq-[dF]RCW-NH2; also: metal complex) | 53% | 16% | 56% | 3% |  |  | 
5 | 3′-Br-Phenylacetyl-His-Gly-D-Phe(4′-Cl)Trp-Cys-NH2 | 33% | 2% | 16% | 14% |  |  | 
6 | Tic-D-Phe(4′-Cl)-Lys-Cys-NH2 | 16% | 6% | 84% | 0% |  |  | 
7 | Ac-[Nle]AW[dF]RCW-NH2 | 45% | 9% | 62% | 0% |  |  | 
8 | Idc-D-Phe-Arg-Trp-Cys-NH2 | 12% | 11% | 0% | 0% |  |  | 
9 | [Igl][dF]RCW-NH2 | 38% and 36% | 14% and 20% | 67% and 64% | 7% and 0% |  |  | 
10 | Tic-D-Phe(4′-Cl)-Arg-Cys-NH2 | 0% | 3% | 42% | 0% |  |  | 
11 | Pro-D-Phe-Arg-Trp-Cys-NH2 (P[dF]RWC-NH2; also: metal complex) | 39% | 14% | 0% | 0% |  |  | 
12 | Hept-Ser(Bzl)-D-Phe(4′-Cl)-Arg-D-Trp-Cys-NH2 | 24% | 62% | 79% | 37% |  |  | 
13 | Nal 2′-D-Phe-Arg-Cys-Trp-NH2 ([2Nal][dF]RCW-NH2; also: metal complex) | 39% | 21% | 63% | 13% |  |  | 
14 | 3′-Br Phenyl acetyl-Arg-Arg-D-Bip-Cys-Bip-NH2 | 56% | 68% | 92% | 46% |  |  | 
15 | 3′-Bromo phenyl acetyl-Arg-Trp-D-Phe(4′-Cl)-Cys-NH2 | 5% | 17% | 21% | 0% |  |  | 
16 | 3′-Br Phenyl acetyl-Arg-Arg-D-Phe(4′-Me)-Cys-NH2 | 94% and 84% | 99% and 93% | 88% | 87% |  |  | 

Row | Substance | % Inhibition of Binding MC1-R (MC1-R; 1 μM) | % Inhibition of Binding hMC4-R (MC4-R; 1 μM) | % Inhibition of Binding hMC5-R (hMC5-R) | % Inhibition of Binding hMC2-R (hMC2-R) | % Inhibition of Binding MC1-R (MC1-R; 0.1 μM) | % Inhibition of Binding hMC4-R (MC4-R; 0.1 μM) | % Inhibition of Binding hMC2-R (hMC2-R; listed as NH2(CH2)6CO-Ser(Bzl)-D-Phe(4′-Cl)-Arg-Trp-Cys-NH2, 1 µM)
17 | Ac-Nle-Ala-Arg-D-Phe-Arg-Cys-Trp-NH2 (Ac-[Nle]AR[dF]RCW-NH2; not fully specified; printed as Ac-Nle-Ala-Arg-D-Phe-Arg-Cys-Trp-NH2) | 92% | 39% | 59% | 26% |  |  | 
18 | 3′-(4′-Hydroxyphenyl)propionyl-D-Phe-Arg-Cys-Trp-NH2 (Desaminotyrosyl-[dF]RCW-NH2; not fully specified; printed as 3′-(4′-Hydroxyphenyl)propionyl-D-Phe-Arg-Cys-Trp-NH2) | 7% | 0% | 14% | 0% |  |  | 
19 | NH2-(CH2)6-CO-Ser(Bzl)-D-Phe(4′-Cl)-Arg-Trp-Cys-NH2 | 74% | 94% | 100% | 90% | 28% | 68% | 87%
20 | 7-amino-haptanoyl-Ser(Bzl)-D-Nal 2′-Arg-Cys-NH2 | 3% | 6% | 34% | 0% |  |  | 
21 | Aic-D-Phe-Arg-Cys-Trp-NH2 | 59% | 21% | 71% | 0% |  |  | 
22 | 1-amino-1-cyclohexane carboxyl-D-Phe-Arg-Trp-Cys-NH2 ([Ac6c][dF]RWC-NH2; N-terminus assumed; SMILES N=C(N)NCCC[C@H](NC(=O)[C@@H](Cc1ccccc1)NC(=O)C1(N)CCCCC1)C(=O)N[C@@H](Cc1c[nH]c2ccccc12)C(=O)N[C@@H](CS)C(N)=O) | 11% | 1% | 16% | 0% |  |  | 
23 | 4′-Biphenylacetyl-D-Phe-Arg-Cys-Trp-NH2 ({Phenylacetyl(4-Ph)}-[dF]RCW-NH2; not fully specified; printed as 4′-Biphenylacetyl-D-Phe-Arg-Cys-Trp-NH2) | 1% | 0% | 50% | 0% |  |  | 
24 | Ac-[Nle]AF[dF]RCW-NH2 | 58% | 16% | 71% | 0% |  |  | 
25 | D-Tiq-D-Phe-Arg-Trp-Cys-NH2 | 5% | 34% | 23% | 0% |  |  | 
26 | Nal 2′-D-Phe-Arg-Trp-Cys-NH2 ([2Nal][dF]RWC-NH2; also: metal complex) | 8% | 20% | 62% | 0% |  |  | 
27 | 3′-(4′-Hydroxyphenyl)propionyl-HiS-D-Phe-Arg-Cys-Trp-NH2 (Desaminotyrosyl-H[dF]RCW-NH2; not fully specified; printed as 3′-(4′-Hydroxyphenyl)propionyl-HiS-D-Phe-Arg-Cys-Trp-NH2) | 76% | 0% | 21% | 0% |  |  | 
28 | Ac-Nle-Ala-His-D-Phe-Arg-His-Cys-NH2 ({Ac-Nle-Ala-H2N}-[dF]RHC-NH2; not fully specified; printed as Ac-Nle-Ala-His-D-Phe-Arg-His-Cys-NH2) | 58% | 1% | 0% | 0% |  |  | 
29 | 3′-Phenylpropionyl-His-D-Phe-Arg-Cys-Trp-NH2 (Hydrocinnamoyl-H[dF]RCW-NH2; not fully specified; printed as 3′-Phenylpropionyl-His-D-Phe-Arg-Cys-Trp-NH2) | 75% | 16% | 50% | 2% |  |  | 
30 | Ac-Nle-Ala-Ala-D-Phe-Arg-Cys-Trp-NH2 (Ac-[Nle]AA[dF]RCW-NH2; not fully specified; printed as Ac-Nle-Ala-Ala-D-Phe-Arg-Cys-Trp-NH2) | 34% | 12% | 20% | 9% |  |  | 
31 | Ac-Nle-Ala-D-Tyr-D-Phe-Arg-Cys-Trp-NH2 (Ac-[Nle]A[dY][dF]RCW-NH2; not fully specified; printed as Ac-Nle-Ala-D-Tyr-D-Phe-Arg-Cys-Trp-NH2) | 15% | 1% | 0% | 0% |  |  | 
